# What was measured:
# Format in all cases: in vivo
# [1] = tested on: Pythium graminicola; experiment: Test 4: control effect against rice damping-off by the Pythium fungus (soil lavage); settings: 1,000 ppm, 2.5 ml test suspension drenched on contaminated soil, rice (koshihikari)
# Description: A 10% wettable powder created according to the Pharmaceutical Formulation Example 1 was diluted with a Tween20 solution prepared to a concentration of 1/5000, then the compound of formula [1] was prepared to a concentration of 4 ppm. Further, the compound of formula [1] in Test 4 was adjusted to a concentration of 1,000 ppm.
# <Test 4 Test of Control Effect Against Rice Damping-Off by the Pythium Fungus (Soil Lavage)>
# Distilled water was added to the flora of Pythium graminicola cultured in bentoglass seed culture and stirred with a mixer, and adjusted the contaminated soil to 5 g of bacteria against 1 kg of soil.
# In a cell tray having 31×31 mm^2 per cell, 20 ml of the contaminated soil was filled in each cell, and 3 seeds of rice chaff that has been forced to sprout (Species: koshihikari) were seeded, and 5 ml of soil was added for covering, then 2.5 ml of test suspension was drenched, and the seeds were incubated in a moist chamber adjusted to 28° C. for 72 hr to induce sprouting. Then, in a low temperature room of 5° C., the onset of disease was induced for 2 days, then the disease was nurtured for 14 days in a room of 25° C.
# The soil was washed, and the apoptosis strain, growth restrained strain, and a healthy strain were measured and the onset rate was calculated by the following formula. Onset rate=[Σ(onset strain number by level×onset index)/(investigated strain×3)]×100 [Onset Index]
# 1: Growth restrained strain
# Also, the following formula was used to compute the control value from the obtained onset index. control value={1−onset area rate at the section applied the test agent/onset area rate of untreated section}×100 Computational formula of the control value: […]
# [2] = tested on: Pseudoperonospora cubensis; experiment: Test 2: control effect against cucumber downy mildew; settings: control value vs untreated section; for pest or weed control at 4 µg/mL: Pseudoperonospora cubensis, 120 h
# Procedure, shortened: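 Cucumber (Sagami hanjiro) at 2-leaf stage sprayed with 4 ppm compound from 10% wettable powder in Tween20 (1/5000); inoculated next day with P. cubensis zoospores, 1.0×10^4 units/ml, 16 hr moist chamber at 22° C. Lesion area rate scored 5 days post-inoculation; control value = (1 − treated/untreated onset area rate)×100.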
# [3] = tested on: Phytophthora infestans; experiment: whole plant or invertebrate; settings: for pest or weed control at 4 µg/mL: Phytophthora infestans, in Solanum lycopersicum, 96 h, read-out: control value (Test 1); for control value (Test 1): tomato late blight, control value vs untreated section
# [4] = tested on: Plasmopara viticola; experiment: Test 3: control effect against grape downy mildew; settings: control value vs untreated section; for pest or weed control at 4 µg/mL: Plasmopara viticola, 120 h
# Procedure, shortened: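 Neomuscat grape seedlings were sprayed with compound at 4 ppm, diluted from a 10% wettable powder in Tween20 solution. One day later they were inoculated with Plasmopara viticola zoospores at 1.0×10^4 units/ml and held moist at 22° C. for 16 hr. Control value was derived from leaf lesion area at 5 days versus untreated leaves.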
Compound,pest or weed control at 1000 ppm [1] [%],pest or weed control at 4 µg/mL [2] [%],pest or weed control at 4 µg/mL [3] [%],pest or weed control at 4 µg/mL [4] [%],control value (Test 2) [2],control value (Test 1) [3],control value (Test 3) [4]
"Cc1cc(C(F)(F)F)nn1CC(=O)N1CCC(c2nc(C3OCc4c(F)ccc(F)c4CO3)cs2)CC1 [Compound 1-3, 4-[4-(6,9-difluoro-1,5-dihydro-3H-2,4-benzodioxepin-3-yl)-2-thiazolyl]-1-[2-[5-methyl-3-(trifluoromethyl)-1H-pyrazole-1-yl]acetyl]piperidine]",≥ 90,100,100,100,,,
"Cc1cc(C(F)(F)F)nn1CC(=O)N1CCC(c2nc(C3OCc4cccc(OS(C)(=O)=O)c4CO3)cs2)CC1 (centres unmarked) [Compound 1-6, 4-[4-(6-methylsulfonyloxy-1,5-dihydro-3H-2,4-benzodioxepin-3-yl)-2-thiazolyl]-1-[2-[5-methyl-3-(trifluoromethyl)-1H-pyrazole-1-yl]acetyl]piperidine]",≥ 90,100,100,100,,,
"Cc1ccc(C)c(CC(=O)N2CCC(c3nc(C4OCc5c(OS(C)(=O)=O)cc(C)c(C)c5CO4)cs3)CC2)c1 (centres unmarked) [Compound 2-31, 4-[4-(6,7-dimethyl-9-methylsulfonyloxy-1,5-dihydro-3H-2,4-benzodioxepin-3-yl)-2-thiazolyl]-1-[2-(2,5-dimethylphenyl)acetyl]piperidine]",,100,0,100,,,
Cc1cc(OS(C)(=O)=O)c2c(c1C)COC(c1csc(C3CCN(C(=O)Cc4cc(Cl)ccc4Cl)CC3)n1)OC2 (centres unmarked) [Compound 2-32],,,,,100,100,100
Cc1ccc(C)c(CC(=O)N2CCC(c3nc(C4OCc5c(Br)ccc(OS(C)(=O)=O)c5CO4)cs3)CC2)c1 (centres unmarked) [Compound 2-33],,,,,100,20,100
CS(=O)(=O)Oc1ccc([N+](=O)[O-])c2c1COC(c1csc(C3CCN(C(=O)Cc4cc(Cl)ccc4Cl)CC3)n1)OC2 (centres unmarked) [Compound 2-34],,,,,100,90,100
CS(=O)(=O)Oc1ccc(Br)c2c1COC(c1csc(C3CCN(C(=O)Cc4cc(Cl)ccc4Cl)CC3)n1)OC2 (centres unmarked) [Compound 2-35],,,,,100,100,100
O=C(Cc1cc(Cl)ccc1Cl)N1CCC(c2nc(C3OCc4cccc([N+](=O)[O-])c4CO3)cs2)CC1 (centres unmarked) [Compound 2-36],,,,,100,100,100
Cc1ccc(C)c(CC(=O)N2CCC(c3nc(C4OCc5c(OS(C)(=O)=O)ccc([N+](=O)[O-])c5CO4)cs3)CC2)c1 (centres unmarked) [Compound 2-37],,,,,100,90,100
Cc1ccc(C)c(CC(=O)N2CCC(c3nc(C4OCc5c(Cl)ccc(OS(C)(=O)=O)c5CO4)cs3)CC2)c1 (centres unmarked) [Compound 2-38],,,,,100,100,100
Cc1ccc(C)c(CC(=O)N2CCC(c3nc(C4OCc5c(I)ccc(OS(C)(=O)=O)c5CO4)cs3)CC2)c1 (centres unmarked) [Compound 2-40],,,,,100,70,100
CS(=O)(=O)Oc1ccc(Cl)c2c1COC(c1csc(C3CCN(C(=O)Cc4cc(Cl)ccc4Cl)CC3)n1)OC2 (centres unmarked) [Compound 2-41],,,,,100,100,100
Cc1ccc(C)c(CC(=O)N2CCC(c3nc(C4OCc5ccc(F)c(OS(C)(=O)=O)c5CO4)cs3)CC2)c1 (centres unmarked) [Compound 2-42],,,,,100,90,100
"CS(=O)(=O)Oc1c(F)ccc2c1COC(c1csc(C3CCN(C(=O)Cc4cc(Cl)ccc4Cl)CC3)n1)OC2 (centres unmarked) [Compound 2-43, 4-[4-(7-fluoro-6-methylsulfonyloxy-1,5-dihydro-3H-2,4-benzodioxepin-3-yl)-2-thiazolyl]-1-[2-(2,5-dichlorophenyl)acetyl]piperidine]",,100,100,100,,,
"CS(=O)(=O)Oc1ccc(I)c2c1COC(c1csc(C3CCN(C(=O)Cc4cc(Cl)ccc4Cl)CC3)n1)OC2 (centres unmarked) [Compound 2-44, 4-[4-(6-iodo-9-methylsulfonyloxy-1,5-dihydro-3H-2,4-benzodioxepin-3-yl)-2-thiazolyl]-1-[2-(2,5-dichlorophenyl)acetyl]piperidine]",,100,90,100,,,
COc1ccc(C)c2c1COC(c1csc(C3CCN(C(=O)Cc4cc(Cl)ccc4Cl)CC3)n1)OC2 (centres unmarked) [Compound 2-46],,,,,100,100,100
Cc1ccc(C)c(CC(=O)N2CCC(c3nc(C4OCc5cccc(OC(F)F)c5CO4)cs3)CC2)c1 (centres unmarked) [Compound 2-47],,,,,100,100,100
CS(=O)(=O)Oc1ccc2c(c1)COC(c1csc(C3CCN(C(=O)Cc4cc(Cl)ccc4Cl)CC3)n1)OC2 (centres unmarked) [Compound 2-49],,,,,0,100,100
COc1cccc2c1COC(c1csc(C3CCN(C(=O)Cc4cc(C)ccc4C)CC3)n1)OC2 (centres unmarked) [Compound 2-50],,,,,100,100,100
COc1cccc2c1COC(c1csc(C3CCN(C(=O)Cc4cc(Cl)ccc4Cl)CC3)n1)OC2 (centres unmarked) [Compound 2-51],,,,,100,100,100
Cc1ccc(C)c(CC(=O)N2CCC(c3nc(C4OCc5c(OS(C)(=O)=O)ccc(OS(C)(=O)=O)c5CO4)cs3)CC2)c1 [Compound 2-53],,,,,100,100,100
Cc1ccc(C)c(CC(=O)N2CCN(c3nc(C4OCc5cccc(OS(C)(=O)=O)c5CO4)cs3)CC2)c1 (centres unmarked) [Compound 2-54],,,,,90,90,100
"CC(C)=NOCC(=O)N1CCC(c2nc(C3OCc4cccc(OS(C)(=O)=O)c4CO3)cs2)CC1 (centres unmarked) [Compound 3-1, 4-[4-(6-methylsulfonyloxy-1,5-dihydro-3H-2,4-benzodioxepin-3-yl)-2-thiazolyl]-1-[2-[(propane-2-ylideneamino)oxy]acetyl]piperidine]",,100,100,100,,,
O=C(CON=CC(F)(F)F)N1CCC(c2nc(C3OCc4cccc(F)c4CO3)cs2)CC1 (centres unmarked) [Compound 3-2],,,,,100,100,100
CS(=O)(=O)Oc1ccc(F)c2c1COC(c1csc(C3CCN(C(=O)CON=CC(F)(F)F)CC3)n1)OC2 (centres unmarked) [Compound 3-3],,,,,100,100,100
O=C(CON=CC(F)(F)F)N1CCC(c2nc(C3OCc4c(F)ccc(F)c4CO3)cs2)CC1 [Compound 3-4],,,,,100,100,100
COc1ccc(OS(C)(=O)=O)c2c1COC(c1csc(C3CCN(C(=O)CON=CC(F)(F)F)CC3)n1)OC2 (centres unmarked) [Compound 3-5],,,,,100,100,100
CS(=O)(=O)Oc1cccc2c1COC(c1csc(C3CCN(C(=O)CON=CC(F)(F)F)CC3)n1)OC2 (centres unmarked) [Compound 3-6],,,,,100,100,100
"CO/C(=N\c1cc(C)ccc1C)N1CCC(c2nc(C3OCc4cccc(OS(C)(=O)=O)c4CO3)cs2)CC1 (centres unmarked) [Compound 4-1, 4-[4-(6-methylsulfonyloxy-1,5-dihydro-3H-2,4-benzodioxepin-3-yl)-2-thiazolyl]-1-[(Z)-[(2,5-dimethylphenyl)imino](methoxy)methyl]piperidine]",,100,100,100,,,
